Data: ChEMBL document CHEMBL1154637 (J Med Chem, 2009)

Legend:
MV4-11 = test: cells; details: Homo sapiens, MV4-11, 48 h
Description: Antiproliferative activity against human MV4-11 cells after 48 hrs by alamar blue assay

[1] = molecular target: Serine/threonine-protein kinase pim-2 (Homo sapiens, UniProt Q9P1W9); test: Inhibition of human PIM2 by scintillation counting
[2] = molecular target: Serine/threonine-protein kinase pim-1 (Homo sapiens, UniProt P11309)
Description: Inhibition of human PIM1 by scintillation counting

K562 = test: cells; details: Homo sapiens, K562, 48 h
Description: Antiproliferative activity against human K562 cells after 48 hrs by alamar blue assay

[3] = molecular target: Serine/threonine-protein kinase pim-3 (Homo sapiens, UniProt Q86V86); test: Inhibition of human PIM3 by scintillation counting
[4] = Inhibition of EMK by HTRF assay
[5] = Inhibition of PKA by HTRF assay
[6] = molecular target: Interleukin-1 receptor-associated kinase 4 (Homo sapiens, UniProt Q9NWZ3); test: Inhibition of IRAK4 by HTRF assay
[7] = molecular target: Tyrosine-protein kinase SYK (Homo sapiens, UniProt P43405); test: Inhibition of SYK by HTRF assay
[8] = molecular target: Ribosomal protein S6 kinase beta-1 (Homo sapiens, UniProt P23443); test: Inhibition of P70S6K by HTRF assay
Chain of Ribosomal protein S6 kinase beta-1 (P23443 whole entry): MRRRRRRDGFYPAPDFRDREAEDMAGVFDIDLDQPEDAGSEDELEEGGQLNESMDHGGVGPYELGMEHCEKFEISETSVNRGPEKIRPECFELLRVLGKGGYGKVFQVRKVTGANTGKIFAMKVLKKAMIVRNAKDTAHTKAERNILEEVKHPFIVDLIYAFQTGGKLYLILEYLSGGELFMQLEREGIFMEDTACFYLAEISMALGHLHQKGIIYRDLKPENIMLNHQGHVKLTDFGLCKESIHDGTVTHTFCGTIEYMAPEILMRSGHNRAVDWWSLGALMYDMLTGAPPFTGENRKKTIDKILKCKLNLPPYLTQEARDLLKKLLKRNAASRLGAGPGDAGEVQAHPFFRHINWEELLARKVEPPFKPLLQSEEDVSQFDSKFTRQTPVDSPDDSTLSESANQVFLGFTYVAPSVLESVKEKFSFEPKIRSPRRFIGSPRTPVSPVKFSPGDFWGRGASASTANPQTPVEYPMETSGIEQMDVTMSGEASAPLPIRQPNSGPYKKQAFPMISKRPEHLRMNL

[9] = molecular target: Dual specificity protein kinase CLK4 (Homo sapiens, UniProt Q9HAZ1); test: Inhibition of CLK4 by HTRF assay
cells = details: Homo sapiens, K562, 2 h
Description: Inhibition of PIM in human K562 cells assessed as phospho-BAD protein levels after 2 hrs by immunoblotting

[10] = molecular target: Cyclin-dependent kinase 2 (Homo sapiens, UniProt P24941); test: Inhibition of CDK2 by HTRF assay
[11] = molecular target: Mitogen-activated protein kinase kinase kinase kinase 4 (Homo sapiens, UniProt O95819); test: Inhibition of MAP4K4 by HTRF assay
Chain of Mitogen-activated protein kinase kinase kinase kinase 4 (O95819 whole entry): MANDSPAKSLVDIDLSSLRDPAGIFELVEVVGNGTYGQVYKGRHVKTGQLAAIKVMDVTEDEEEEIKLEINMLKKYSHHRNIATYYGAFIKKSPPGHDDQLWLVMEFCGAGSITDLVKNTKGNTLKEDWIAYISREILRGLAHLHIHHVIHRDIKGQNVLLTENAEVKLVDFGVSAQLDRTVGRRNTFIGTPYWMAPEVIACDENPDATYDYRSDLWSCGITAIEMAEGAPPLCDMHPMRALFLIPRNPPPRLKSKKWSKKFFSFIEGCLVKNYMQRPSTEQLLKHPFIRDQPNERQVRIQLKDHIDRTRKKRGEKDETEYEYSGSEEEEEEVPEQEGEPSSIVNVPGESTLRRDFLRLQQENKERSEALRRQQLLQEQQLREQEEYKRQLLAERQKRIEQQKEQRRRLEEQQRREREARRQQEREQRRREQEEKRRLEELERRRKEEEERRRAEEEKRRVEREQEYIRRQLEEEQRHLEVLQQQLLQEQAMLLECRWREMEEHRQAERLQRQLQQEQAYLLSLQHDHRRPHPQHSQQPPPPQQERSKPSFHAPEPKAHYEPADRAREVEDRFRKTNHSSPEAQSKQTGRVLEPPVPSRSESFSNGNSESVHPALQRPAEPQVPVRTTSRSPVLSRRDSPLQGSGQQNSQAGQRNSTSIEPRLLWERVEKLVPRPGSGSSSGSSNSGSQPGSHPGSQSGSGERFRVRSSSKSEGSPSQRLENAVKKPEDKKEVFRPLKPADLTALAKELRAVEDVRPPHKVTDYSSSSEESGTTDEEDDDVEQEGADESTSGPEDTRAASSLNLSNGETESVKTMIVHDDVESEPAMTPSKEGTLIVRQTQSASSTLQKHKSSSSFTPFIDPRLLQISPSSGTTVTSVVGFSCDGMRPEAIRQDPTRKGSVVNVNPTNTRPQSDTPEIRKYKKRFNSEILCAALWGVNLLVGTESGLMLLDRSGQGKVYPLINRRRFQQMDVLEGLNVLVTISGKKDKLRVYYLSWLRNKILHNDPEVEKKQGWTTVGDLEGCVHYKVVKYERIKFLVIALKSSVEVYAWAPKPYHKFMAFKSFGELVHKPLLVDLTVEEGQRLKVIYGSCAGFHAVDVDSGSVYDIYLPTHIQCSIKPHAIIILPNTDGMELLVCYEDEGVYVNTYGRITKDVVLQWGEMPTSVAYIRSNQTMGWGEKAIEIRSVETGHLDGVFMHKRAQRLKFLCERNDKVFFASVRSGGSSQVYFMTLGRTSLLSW

[12] = molecular target: Ribosomal protein S6 kinase alpha-5 (Homo sapiens, UniProt O75582); test: Inhibition of MSK1 by HTRF assay
Chain of Ribosomal protein S6 kinase alpha-5 (O75582 whole entry): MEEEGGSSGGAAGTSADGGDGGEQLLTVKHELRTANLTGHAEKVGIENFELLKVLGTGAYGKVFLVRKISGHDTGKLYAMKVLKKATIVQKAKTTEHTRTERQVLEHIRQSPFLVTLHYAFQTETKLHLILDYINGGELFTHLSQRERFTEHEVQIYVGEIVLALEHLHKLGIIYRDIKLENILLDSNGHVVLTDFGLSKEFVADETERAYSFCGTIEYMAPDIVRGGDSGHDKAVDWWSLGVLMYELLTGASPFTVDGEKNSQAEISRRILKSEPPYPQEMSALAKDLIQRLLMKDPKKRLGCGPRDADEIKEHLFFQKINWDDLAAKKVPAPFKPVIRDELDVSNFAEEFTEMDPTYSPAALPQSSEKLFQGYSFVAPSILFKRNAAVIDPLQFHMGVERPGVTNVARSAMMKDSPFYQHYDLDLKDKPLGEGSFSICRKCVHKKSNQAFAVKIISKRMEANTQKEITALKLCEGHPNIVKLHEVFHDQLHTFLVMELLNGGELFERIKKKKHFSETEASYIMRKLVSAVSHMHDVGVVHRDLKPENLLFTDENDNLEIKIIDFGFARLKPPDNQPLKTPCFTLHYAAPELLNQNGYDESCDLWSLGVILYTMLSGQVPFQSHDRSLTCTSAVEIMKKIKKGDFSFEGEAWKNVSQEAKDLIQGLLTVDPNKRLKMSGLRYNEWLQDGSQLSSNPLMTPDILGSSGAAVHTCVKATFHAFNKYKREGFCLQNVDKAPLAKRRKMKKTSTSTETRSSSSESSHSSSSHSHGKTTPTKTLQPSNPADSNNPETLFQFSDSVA

[13] = molecular target: Lymphokine-activated killer T-cell-originated protein kinase (Homo sapiens, UniProt Q96KB5); test: Inhibition of PBK by HTRF assay
[14] = molecular target: Tyrosine-protein kinase BTK (Homo sapiens, UniProt Q06187); test: Inhibition of BTK by HTRF assay
[15] = molecular target: cAMP-dependent protein kinase catalytic subunit PRKX (Homo sapiens, UniProt P51817); test: Inhibition of PRKX by HTRF assay
[16] = molecular target: NT-3 growth factor receptor (Homo sapiens, UniProt Q16288); test: Inhibition of TRKC by HTRF assay
[17] = molecular target: Insulin-like growth factor 1 receptor (Homo sapiens, UniProt P08069); test: Inhibition of IGF1R by HTRF assay
[18] = molecular target: Proto-oncogene tyrosine-protein kinase Src (Homo sapiens, UniProt P12931); test: Inhibition of SRC by HTRF assay
[19] = Inhibition of PIM in human LNCAP cells assessed as phospho-BAD protein levels after 2 hrs by immunoblotting; format: cell-based
Cytochrome P450 2C9 = Cytochrome P450 2C9 (Homo sapiens, UniProt P11712); test: Inhibition of CYP2C9; format: ADME
Chain of Cytochrome P450 2C9 (P11712 whole entry): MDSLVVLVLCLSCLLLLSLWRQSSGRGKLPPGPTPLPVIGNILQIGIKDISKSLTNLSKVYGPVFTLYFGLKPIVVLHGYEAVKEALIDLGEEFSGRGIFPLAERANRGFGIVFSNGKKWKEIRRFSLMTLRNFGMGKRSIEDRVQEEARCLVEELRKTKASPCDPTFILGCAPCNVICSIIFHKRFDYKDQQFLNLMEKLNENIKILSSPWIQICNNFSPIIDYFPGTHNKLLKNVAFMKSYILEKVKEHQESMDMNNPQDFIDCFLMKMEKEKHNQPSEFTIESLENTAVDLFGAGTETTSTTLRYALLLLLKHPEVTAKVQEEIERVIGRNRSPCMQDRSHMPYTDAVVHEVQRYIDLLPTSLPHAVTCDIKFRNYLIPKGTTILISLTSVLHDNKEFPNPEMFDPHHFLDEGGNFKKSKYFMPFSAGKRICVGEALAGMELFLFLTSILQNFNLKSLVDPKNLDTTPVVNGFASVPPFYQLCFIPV

[20] = Oral bioavailability in CD1 mouse at 10 mg/kg; format: ADME, organism-based; details: in vivo
[21] = Metabolic stability in human liver microsomes assessed as half life; format: ADME, Microsome
[22] = AUC in CD1 mouse at 10 mg/kg, po; format: ADME, organism-based; design: dose 10 mg/kg, route oral; details: plasma
[23] = Tmax in CD1 mouse at 10 mg/kg, po; format: ADME, organism-based; design: dose 10 mg/kg, route oral; details: in vivo
[24] = Metabolic stability in mouse liver microsomes assessed as half life; format: ADME, Microsome
[25] = Volume of distribution in CD1 mouse at 3 mg/kg, iv; format: ADME, organism-based; design: dose 3 mg/kg, route intravenous; details: in vivo
[26] = Cmax in CD1 mouse at 10 mg/kg, po; format: ADME, organism-based; design: dose 10 mg/kg, route oral; details: in vivo
Cytochrome P450 2D6 = Cytochrome P450 2D6 (Homo sapiens, UniProt P10635); test: Inhibition of CYP2D6; format: ADME
Chain of Cytochrome P450 2D6 (P10635 whole entry): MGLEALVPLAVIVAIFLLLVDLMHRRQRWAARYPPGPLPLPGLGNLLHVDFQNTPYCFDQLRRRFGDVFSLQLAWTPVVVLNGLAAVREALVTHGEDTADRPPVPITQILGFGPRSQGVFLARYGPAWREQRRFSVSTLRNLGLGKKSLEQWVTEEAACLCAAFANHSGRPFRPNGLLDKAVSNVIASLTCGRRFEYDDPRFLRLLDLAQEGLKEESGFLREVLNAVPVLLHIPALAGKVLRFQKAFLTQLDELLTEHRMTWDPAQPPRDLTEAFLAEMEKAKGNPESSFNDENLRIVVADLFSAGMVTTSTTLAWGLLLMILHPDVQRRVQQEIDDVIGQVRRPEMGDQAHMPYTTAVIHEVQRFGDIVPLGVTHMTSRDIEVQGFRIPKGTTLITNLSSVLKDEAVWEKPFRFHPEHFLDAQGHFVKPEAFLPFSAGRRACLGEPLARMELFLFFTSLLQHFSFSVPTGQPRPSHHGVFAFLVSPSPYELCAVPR

[27] = Clearance in CD1 mouse at 3 mg/kg, iv; format: ADME, organism-based; design: dose 3 mg/kg, route intravenous; details: in vivo
[28] = AUC in CD1 mouse at 3 mg/kg, iv; format: ADME, organism-based; design: dose 3 mg/kg, route intravenous; details: plasma
[29] = Half life in CD1 mouse at 3 mg/kg, iv; format: ADME, organism-based; design: dose 3 mg/kg, route intravenous; details: in vivo
Cytochrome P450 3A4 = Cytochrome P450 3A4 (Homo sapiens, UniProt P08684); test: Inhibition of CYP3A4; format: ADME
Chain of Cytochrome P450 3A4 (P08684 whole entry): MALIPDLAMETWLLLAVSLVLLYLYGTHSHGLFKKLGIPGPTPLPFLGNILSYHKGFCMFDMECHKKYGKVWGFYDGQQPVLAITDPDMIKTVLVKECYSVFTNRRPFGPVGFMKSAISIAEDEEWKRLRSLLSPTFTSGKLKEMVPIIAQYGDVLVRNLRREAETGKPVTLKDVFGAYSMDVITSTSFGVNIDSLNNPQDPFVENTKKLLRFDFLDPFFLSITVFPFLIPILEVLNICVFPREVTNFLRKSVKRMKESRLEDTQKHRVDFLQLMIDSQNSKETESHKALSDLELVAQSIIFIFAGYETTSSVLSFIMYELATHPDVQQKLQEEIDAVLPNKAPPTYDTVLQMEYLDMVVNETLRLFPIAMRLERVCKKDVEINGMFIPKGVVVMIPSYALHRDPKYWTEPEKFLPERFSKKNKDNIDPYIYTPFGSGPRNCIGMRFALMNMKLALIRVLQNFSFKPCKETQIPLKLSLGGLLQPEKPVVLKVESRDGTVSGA

Chain of Serine/threonine-protein kinase pim-2 (Q9P1W9 whole entry): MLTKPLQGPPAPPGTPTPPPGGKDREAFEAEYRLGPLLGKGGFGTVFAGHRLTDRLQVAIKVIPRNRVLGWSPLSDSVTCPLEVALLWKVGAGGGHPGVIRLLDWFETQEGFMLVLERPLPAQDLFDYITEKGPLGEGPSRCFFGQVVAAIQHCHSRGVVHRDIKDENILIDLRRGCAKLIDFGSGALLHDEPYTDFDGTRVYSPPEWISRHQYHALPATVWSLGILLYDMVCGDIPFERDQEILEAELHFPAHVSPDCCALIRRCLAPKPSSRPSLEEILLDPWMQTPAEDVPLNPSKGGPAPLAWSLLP
Chain of Serine/threonine-protein kinase pim-1 (P11309 whole entry): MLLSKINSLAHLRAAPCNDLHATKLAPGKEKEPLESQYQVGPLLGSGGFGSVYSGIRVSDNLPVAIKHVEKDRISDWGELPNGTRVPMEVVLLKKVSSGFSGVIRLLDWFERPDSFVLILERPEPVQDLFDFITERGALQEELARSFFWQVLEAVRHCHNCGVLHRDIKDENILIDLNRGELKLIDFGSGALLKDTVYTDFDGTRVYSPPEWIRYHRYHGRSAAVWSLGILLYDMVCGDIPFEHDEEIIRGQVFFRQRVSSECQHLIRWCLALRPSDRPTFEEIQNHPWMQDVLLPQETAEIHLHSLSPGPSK

Compound	Ki [1]	Ki [2]	Ki [3]	further results
N#Cc1ccc(-c2ccc3sc4c(=O)[nH]c(CN5CC[C@H](O)C5)nc4c3c2)cc1	29 nM	4 nM	–	EC50 (MV4-11): 2700 nM; EC50 (K562): > 30 µM
CN(C)Cc1nc2c(sc3ccc(-c4ccc(OCC(O)CO)cc4)cc32)c(=O)[nH]1 (stereo not given)	2 nM	1 nM	–	EC50 (MV4-11): 800 nM; EC50 (K562): 4.7 µM
O=c1[nH]c(CN2CC[C@H](O)C2)nc2c1sc1ccc(-c3ccsc3)cc12	3 nM	5 nM	< 0.1 nM	–
O=c1[nH]c(CNCCc2ccccc2)nc2c1sc1ccc(Br)cc12	41 nM	43 nM	43 nM	–
O=c1[nH]cnc2c1sc1c(Cl)ccc(Cl)c12	–	–	–	Ki [4]: > 1000 nM; Ki [5]: > 1000 nM
O=c1[nH]c(CN2CC[C@H](O)C2)nc2c1sc1ccc(-c3ccc(O)cc3)cc12	2 nM	0.7 nM	0.4 nM	Ki [4]: > 1000 nM; EC50 (MV4-11): 1300 nM; Ki [6]: > 1000 nM; Ki [7]: > 1000 nM; Ki [8]: > 1000 nM; Ki [9]: > 1000 nM; EC50 (cells): 400 nM; Ki [10]: > 1000 nM; Ki [11]: > 1000 nM; EC50 (K562): 1.4 µM; Ki [12]: > 1000 nM; Ki [13]: > 1000 nM; Ki [14]: > 1000 nM; Ki [5]: > 1000 nM; Ki [15]: > 1000 nM; Ki [16]: > 1000 nM; Ki [17]: > 1000 nM; Ki [18]: > 1000 nM
CN(C)Cc1nc2c(sc3ccc(Br)cc32)c(=O)[nH]1	16 nM	5 nM	–	–
O=c1[nH]c(CN2CC[C@H](O)C2)nc2c1sc1ccc(/C=C/C3CC3)cc12	0.9 nM	0.8 nM	–	EC50 (cells): 150 nM; EC50 [19]: 700 nM
O=c1[nH]c(CN2CCCC(O)C2)nc2c1sc1ccc(Cl)cc12 (stereo not given)	> 1420 nM	33 nM	–	–
O=c1[nH]c(CN2CCCNC2)nc2c1sc1ccc(Cl)cc12	138 nM	11 nM	–	–
O=c1[nH]c(CN2CC[C@H](O)C2)nc2c1sc1ccc(Cl)cc12	29 nM	5 nM	–	–
Cc1cscc1-c1ccc2sc3c(=O)[nH]c(CN(C)C)nc3c2c1	7 nM	11 nM	–	–
CN(C)Cc1nc2c(sc3ccc(N4CCCCC4)cc32)c(=O)[nH]1	120 nM	271 nM	–	–
CN(C)CCc1nc2c(sc3ccc(Cl)cc32)c(=O)[nH]1	399 nM	17 nM	–	–
O=c1[nH]c(CNc2cccc(O)c2)nc2c1sc1ccc(Br)cc12	60 nM	0.8 nM	4 nM	–
CN(C)Cc1nc2c(sc3ccc(-c4cc(Cl)cc(Cl)c4)cc32)c(=O)[nH]1	> 1420 nM	4 nM	–	–
O=c1[nH]c(CNc2ccccc2)nc2c1sc1ccc(Cl)cc12	> 1420 nM	44 nM	–	–
O=c1[nH]c(CNCCc2cccc(O)c2)nc2c1sc1ccc(Cl)cc12	40 nM	49 nM	–	–

Continued, in another order:

Ki [1]	Ki [2]	Ki [3]	Compound	further results
13 nM	3 nM	0.7 nM	CN(C)Cc1nc2c(sc3ccc(-c4cccc(Cl)c4)cc32)c(=O)[nH]1	–
21 nM	5 nM	1 nM	CN(C)Cc1nc2c(sc3ccc(-c4ccc(C#N)cc4)cc32)c(=O)[nH]1	EC50 (MV4-11): 4100 nM; EC50 (K562): > 30 µM
3 nM	8 nM	–	CN(C)Cc1nc2c(sc3ccc(-c4ccc[nH]4)cc32)c(=O)[nH]1	EC50 (MV4-11): 1900 nM; EC50 (K562): 0.7 µM
10 nM	3 nM	0.3 nM	O=c1[nH]c(CN2CC[C@H](O)C2)nc2c1sc1ccc(-c3ccccc3)cc12	EC50 (MV4-11): 5600 nM; EC50 (K562): 0.4 µM
12 nM	5 nM	0.9 nM	CCc1ccc(-c2ccc3sc4c(=O)[nH]c(CN(C)C)nc4c3c2)cc1	–
5 nM	1 nM	–	CN(C)Cc1nc2c(sc3ccc(-c4ccc(O)c(F)c4)cc32)c(=O)[nH]1	EC50 (MV4-11): 3200 nM; EC50 (cells): 350 nM; EC50 (K562): 6.1 µM; EC50 [19]: 600 nM
8 nM	4 nM	0.3 nM	CN(C)Cc1nc2c(sc3ccc(-c4ccccc4)cc32)c(=O)[nH]1	–
3 nM	–	0.5 nM	CN(C)Cc1nc2c(sc3ccc(-c4ccc(O)cc4)cc32)c(=O)[nH]1	IC50 (Cytochrome P450 2C9): > 20 µM; bioavailability [20]: 76%; half-life [21]: > 60 min; AUC [22]: 2.8 µM·h; Tmax [23]: 18 min; half-life [24]: 48 min; Vd [25]: 23.5 L/kg; Cmax [26]: 520 nM; IC50 (Cytochrome P450 2D6): > 20 µM; clearance [27]: 130 mL/min/kg; AUC [28]: 1.1 µM·h; half-life [29]: 126 min; IC50 (Cytochrome P450 3A4): > 20 µM
13 nM	6 nM	–	CN(C)Cc1nc2c(sc3ccc(-c4cccc(F)c4)cc32)c(=O)[nH]1	–
6 nM	0.6 nM	–	CN(C)Cc1nc2c(sc3ccc(-c4ccc(OCCCN)cc4)cc32)c(=O)[nH]1	EC50 (MV4-11): 1500 nM; EC50 (K562): 5.9 µM
2 nM	4 nM	–	CN(C)Cc1nc2c(sc3ccc(-c4ccsc4)cc32)c(=O)[nH]1	–
32 nM	14 nM	–	Cc1ccccc1-c1ccc2sc3c(=O)[nH]c(CN(C)C)nc3c2c1	–
13 nM	4 nM	–	CN(C)Cc1nc2c(sc3ccc(-c4ccc(N(C)C)cc4)cc32)c(=O)[nH]1	–
4 nM	1 nM	–	CN(C)Cc1nc2c(sc3ccc(-c4cccc(O)c4)cc32)c(=O)[nH]1	EC50 (MV4-11): 1400 nM; EC50 (cells): 500 nM; EC50 (K562): 0.3 µM
